Reference: US12037340B2, “Pentacyclic derivatives as Zika virus inhibitors” (Gilead Sciences, Inc., priority 2021, dated 2024)

system: ZIKV; assay: microbe, parasite or virus in culture; type: cell-based, Zika virus; conditions: 48 hrs

Structure (SMILES) | EC50 [nM]
COC(=O)N[C@H](C(=O)N1CC2(CC2)C[C@H]1c1nc(Cl)c(-c2ccc3c(c2)COc2cc4c(ccc5nc([C@@H]6CC7(CC7)CN6C(=O)[C@@H](NC(=O)OC)C(C)(C)C(F)(F)F)[nH]c54)cc2-3)[nH]1)C(C)(C)C(F)(F)F [Compound 4, methyl ((S)-1-((S)-6-(4-chloro-5-(2-((S)-5-((S)-4,4,4-trifluoro-2-((methoxycarbonyl)amino)-3,3-dimethylbutanoyl)-5-azaspiro[2.4]heptan-6-yl)-1,11-dihydroisochromeno[4′,3′:6,7]naphtho[1,2-d]imidazol-9-yl)-1H-imidazol-2-yl)-5-azaspiro[2.4]heptan-5-yl)-4,4,4-trilluoro-3,3-dimethyl-1-oxobutan-2-yl)carbamate] | 8.7

same assay, conditions: Zika virus, Huh-7; 48 hrs

Structure (SMILES) | EC50 [nM]
COC(=O)N[C@H](C(=O)N1[C@@H](C)CC[C@H]1c1nc(Cl)c(-c2ccc3c(c2)COc2cc4c(ccc5nc([C@@H]6CC[C@H](C)N6C(=O)[C@@H](NC(=O)OC)C6C[C@@H](C)O[C@H](C)C6)[nH]c54)cc2-3)[nH]1)C1CC(C)O[C@H](C)C1 (stereo in doubt) [Compound 9, methyl ((S)-2-((2S,5S)-2-(9-(4-chloro-2-((2S,5S)-1-((S)-2-((2R,6R)-2,6-dimethyltetrahydro-2H-pyran-4-yl)-2-((methoxycarbonyl)amino)acetyl)-5-methylpyrrolidin-2-yl)-1H-imidazol-5-yl)-1,11-dihydroisochromeno[4′,3′:6,7]naphtho[1,2-d]imidazol-2-yl)-5-methylpyrrolidin-1-yl)-1-((2R,6R)-2,6-dimethyltetrahydro-2H-pyran-4-yl)-2-oxoethyl)carbamate] | 48.1
COC(=O)N[C@H](C(=O)N1[C@@H](C)CC[C@H]1c1nc(Br)c(-c2ccc3c(c2)COc2cc4c(ccc5nc([C@@H]6CC[C@H](C)N6C(=O)[C@@H](NC(=O)OC)C6C[C@@H](C)O[C@H](C)C6)[nH]c54)cc2-3)[nH]1)C1CC(C)O[C@H](C)C1 (stereo in doubt) [Compound 10, methyl ((S)-2-((2S,5S)-2-(9-(4-bromo-2-((2S,5S)-1-((S)-2-((2R,6R)-2,6-dimethyltetrahydro-2H-pyran-4-yl)-2-((methoxycarbonyl)amino)acetyl)-5-methylpyrrolidin-2-yl)-1H-imidazol-5-yl)-1,11-dihydroisochromeno[4′,3′:6,7]naphtho[1,2-d]imidazol-2-yl)-5-methylpyrrolidin-1-yl)-1-((2R,6R)-2,6-dimethyltetrahydro-2H-pyran-4-yl)-2-oxoethyl)carbamate] | 18.8
COC(=O)N[C@H](C(=O)N1CC2(CC2)C[C@H]1c1nc(Cl)c(-c2ccc3c(c2)COc2cc4c(ccc5nc([C@@H]6CC7(CC7)CN6C(=O)[C@@H](NC(=O)OC)C(C)C)[nH]c54)cc2-3)[nH]1)C(C)C [Compound 2, methyl ((S)-1-((S)-6-(4-chloro-5-(2-((S)-5-((methoxycarbonyl)-L-valyl)-5-azaspiro[2.4]heptan-6-yl)-1,11-dihydroisochromeno[4′,3′:6,7]naphtho[1,2-d]imidazol-9-yl)-1H-imidazol-2-yl)-5-azaspiro[2.4]heptan-5-yl)-3-methyl-1-oxobutan-2-yl)carbamate] | 50.5
COC[C@H]1C[C@@H](c2nc(Cl)c(-c3ccc4c(c3)COc3cc5c(ccc6nc([C@@H]7CC[C@H](C)N7C(=O)[C@@H](NC(=O)OC)C(C)C)[nH]c65)cc3-4)[nH]2)N(C(=O)[C@@H](NC(=O)OC)[C@@H](C)OC)C1 [Compound 5, methyl ((S)-1-((2S,5S)-2-(9-(4-chloro-2-((2S,4S)-1-(N-(methoxycarbonyl)-O-methyl-L-threonyl)-4-(methoxymethyl)pyrrolidin-2-yl)-1H-imidazol-5-yl)-1,11-dihydroisochromeno[4′,3′:6,7]naphtho[1,2-d]imidazol-2-yl)-5-methylpyrrolidin-1-yl)-3-methyl-1-oxobutan-2-yl)carbamate] | 124
COC[C@H]1C[C@@H](c2nc(Cl)c(-c3ccc4c(c3)COc3cc5c(ccc6nc([C@@H]7CC[C@H](C)N7C(=O)[C@@H](NC(=O)OC)C(C)C)[nH]c65)cc3-4)[nH]2)N(C(=O)[C@@H](NC(=O)OC)C2CCOCC2)C1 [Compound 6, methyl ((S)-1-((2S,5S)-2-(9-(4-chloro-2-((2S,4S)-1-((S)-2-((methoxycarbonyl)amino)-2-(tetrahydro-2H-pyran-4-yl)acetyl)-4-(methoxymethyl)pyrrolidin-2-yl)-1H-imidazol-5-yl)-1,11-dihydroisochromeno[4′,3′:6,7]naphtho[1,2-d]imidazol-2-yl)-5-methylpyrrolidin-1-yl)-3-methyl-1-oxobutan-2-yl)carbamate] | 133
COC[C@H]1C[C@@H](c2nc(Cl)c(-c3ccc4c(c3)COc3cc5c(ccc6nc([C@@H]7CC[C@H](C)N7C(=O)[C@@H](NC(=O)OC)C(C)C)[nH]c65)cc3-4)[nH]2)N(C(=O)[C@@H](NC(=O)OC)C(C)C)C1 [Compound 7, methyl ((S)-1-((2S,5S)-2-(9-(4-chloro-2-((2S,4S)-1-((methoxycarbonyl)-L-valyl)-4-(methoxymethyl)pyrrolidin-2-yl)-1H-imidazol-5-yl)-1,11-dihydroisochromeno[4′,3′:6,7]naphtho[1,2-d]imidazol-2-yl)-5-methylpyrrolidin-1-yl)-3-methyl-1-oxobutan-2-yl)carbamate] | 39
COC[C@H]1C[C@@H](c2nc(Br)c(-c3ccc4c(c3)COc3cc5c(ccc6nc([C@@H]7CC[C@H](C)N7C(=O)[C@@H](NC(=O)OC)C(C)C)[nH]c65)cc3-4)[nH]2)N(C(=O)[C@@H](NC(=O)OC)C(C)C)C1 [Compound 8, methyl ((S)-1-((2S,5S)-2-(9-(4-bromo-2-((2S,4S)-1-((methoxycarbonyl)-L-valyl)-4-(methoxymethyl)pyrrolidin-2-yl)-1H-imidazol-5-yl)-1,11-dihydroisochromeno[4′,3′:6,7]naphtho[1,2-d]imidazol-2-yl)-5-methylpyrrolidin-1-yl)-3-methyl-1-oxobutan-2-yl)carbamate] | 24.1
COC(=O)N[C@H](C(=O)N1[C@@H](C)CC[C@H]1c1nc(C2CC2)c(-c2ccc3c(c2)COc2cc4c(ccc5nc([C@@H]6CC[C@H](C)N6C(=O)[C@@H](NC(=O)OC)C6C[C@@H](C)O[C@H](C)C6)[nH]c54)cc2-3)[nH]1)C1C[C@@H](C)O[C@H](C)C1 (stereo partly drawn) [Compound 11, methyl ((S)-2-((2S,5S)-2-(9-(4-cyclopropyl-2-((2S,5S)-1-((S)-2-((2R,6R)-2,6-dimethyltetrahydro-2H-pyran-4-yl)-2-((methoxycarbonyl)amino)acetyl)-5-methylpyrrolidin-2-yl)-1H-imidazol-5-yl)-1,11-dihydroisochromeno[4′,3′:6,7]naphtho[1,2-d]imidazol-2-yl)-5-methylpyrrolidin-1-yl)-1-((2R,6R)-2,6-dimethyltetrahydro-2H-pyran-4-yl)-2-oxoethyl)carbamate] | 21.9
CC[C@H]1CC[C@@H](c2nc3ccc4cc5c(cc4c3[nH]2)OCc2cc(-c3[nH]c([C@@H]4CC[C@H](C)N4C(=O)[C@@H](NC(=O)OC)C(C)C)nc3Cl)ccc2-5)N1C(=O)[C@@H](NC(=O)OC)C1CCOCC1 [Compound 12, methyl ((S)-2-((2S,5S)-2-(9-(4-chloro-2-((2S,5S)-1-((methoxycarbonyl)-L-valyl)-5-methylpyrrolidin-2-yl)-1H-imidazol-5-yl)-1,11-dihydroisochromeno[4′,3′:6,7]naphtho[1,2-d]imidazol-2-yl)-5-ethylpyrrolidin-1-yl)-2-oxo-1-(tetrahydro-2H-pyran-4-yl)ethyl)carbamate] | 12.1
COC[C@H]1C[C@@H](c2nc(C#N)c(-c3ccc4c(c3)COc3cc5c(ccc6nc([C@@H]7CC[C@H](C)N7C(=O)[C@@H](NC(=O)OC)C(C)C)[nH]c65)cc3-4)[nH]2)N(C(=O)[C@@H](NC(=O)OC)C(C)C)C1 [Compound 13, methyl ((S)-1-((2S,5S)-2-(9-(4-cyano-2-((2S,4S)-1-((methoxycarbonyl)-L-valyl)-4-(methoxymethyl)pyrrolidin-2-yl)-1H-imidazol-5-yl)-1,11-dihydroisochromeno[4′,3′:6,7]naphtho[1,2-d]imidazol-2-yl)-5-methylpyrrolidin-1-yl)-3-methyl-1-oxobutan-2-yl)carbamate] | 51.6
CC[C@H](C)[C@H](NC(=O)OC)C(=O)N1C[C@@H](COC)C[C@H]1c1nc(Cl)c(-c2ccc3c(c2)COc2cc4c(ccc5nc([C@@H]6CC[C@H](C)N6C(=O)[C@@H](NC(=O)OC)C(C)C)[nH]c54)cc2-3)[nH]1 [Compound 14, methyl ((S)-1-((2S,5S)-2-(9-(4-chloro-2-((2S,4S)-1-((methoxycarbonyl)-L-isoleucyl)-4-(methoxymethyl)pyrrolidin-2-yl)-1H-imidazol-5-yl)-1,11-dihydroisochromeno[4′,3′:6,7]naphtho[1,2-d]imidazol-2-yl)-5-methylpyrrolidin-1-yl)-3-methyl-1-oxobutan-2-yl)carbamate] | 9.7
CC[C@H](C)[C@H](NC(=O)OC)C(=O)N1[C@@H](C)CC[C@H]1c1nc(Cl)c(-c2ccc3c(c2)COc2cc4c(ccc5nc([C@@H]6CC[C@H](C)N6C(=O)[C@@H](NC(=O)OC)C6CCOCC6)[nH]c54)cc2-3)[nH]1 [Compound 15, methyl ((S)-2-((2S,5S)-2-(9-(4-chloro-2-((2S,5S)-1-((methoxycarbonyl)-L-isoleucyl)-5-methylpyrrolidin-2-yl)-1H-imidazol-5-yl)-1,11-dihydroisochromeno[4′,3′:6,7]naphtho[1,2-d]imidazol-2-yl)-5-methylpyrrolidin-1-yl)-2-oxo-1-(tetrahydro-2H-pyran-4-yl)ethyl)carbamate] | 7.7
CC[C@H](C)[C@H](NC(=O)OC)C(=O)N1C[C@@H](COC)C[C@H]1c1nc(C#N)c(-c2ccc3c(c2)COc2cc4c(ccc5nc([C@@H]6CC[C@H](C)N6C(=O)[C@@H](NC(=O)OC)C(C)C)[nH]c54)cc2-3)[nH]1 [Compound 16, methyl ((S)-1-((2S,5S)-2-(9-(4-cyano-2-((2S,4S)-1-((methoxycarbonyl)-L-isoleucyl)-4-(methoxymethyl)pyrrolidin-2-yl)-1H-imidazol-5-yl)-1,11-dihydroisochromeno[4′,3′:6,7]naphtho[1,2-d]imidazol-2-yl)-5-methylpyrrolidin-1-yl)-3-methyl-1-oxobutan-2-yl)carbamate] | 43.4
